Test results from US9149455B2, “Methods of treating melanoma” (Abraxis BioScience, LLC, priority 2012, dated 2015).

Columns and labels:
metastatic melanoma = conditions: advanced melanoma; Finn L et al., BMC Medicine 2012; cited from earlier work
[1] = test system: stage IV cutaneous metastatic malignant melanoma; assay: Phase 3 study of Nab-paclitaxel versus dacarbazine in chemotherapy-naive patients, efficacy; format: in vivo, human
Text: Chemotherapy-naïve patients with stage IV cutaneous metastatic malignant melanoma were enrolled. The patients had Eastern Cooperative Oncology Group (ECOG) PS 0-1, measurable disease, and lactate dehydrogenase (LDH) levels ≦2.0× Upper Limit of Normal (ULN), and had no current brain metastases.
The primary efficacy endpoint was progression-free survival (“PFS”) based on a blinded radiology assessment (according to Response Evaluation Criteria in Solid Tumors (“RECIST”) v1.0). The secondary efficacy endpoint was overall survival (“OS”). Other endpoints included objective response rate (“ORR”), disease control rate (“DCR”), and safety/tolerability.

[2] = Phase 3 study of Nab-paclitaxel versus dacarbazine, treatment-related adverse events; format: in vivo, human
[3] = Grade ≧3 treatment-related adverse events

## Ipilmumab: anti-CTLA-4 antibody, FDA approved 2011 for advanced melanoma
Metastatic melanoma
  improvement of median survival time: two

## CN(C)/N=N/c1[nH]cnc1C(N)=O [Dacarbazine, dacarbazine]
[1]; BRAF V600E Mutation subgroup
  Median OS (interim): 11.2 months
  Median PFS: 3.5 months
[1]; BRAF Wild Type subgroup
  Median OS (interim): 11.1 months
  Median PFS: 2.5 months
[1]; BRAF status Unknown subgroup
  Median OS (interim): 9.9 months
  Median PFS: 2.2 months
[1]; all patients, Nab-paclitaxel 150 mg/m^2 iv days 1, 8, 15 of 28-day cycle vs dacarbazine 1000 mg/m^2 iv day 1 of 21-day cycle, RECIST v1.0, P=0.044
  progression free survival (PFS) by independent radiology review: 2.5 months
[1]; all patients, at time of PFS analysis, 64% of patients had an event
  Median OS, planned interim analysis: 10.7 months
[1]; blinded radiology assessment
  Best Response: Not Evaluable: 25%
  Best Response: PD: 48%
  Best Response: SD: 16%
  DCR: 27%
  ORR: 11%
  PR (listed under DCR): 11%
[1]; blinded radiology assessment, confirmed
  Best Response: PR: 11%
[2]; Grade ≧3 TRAE
  Alopecia: 0%
  Anemia: 5%
  Fatigue: 2%
  Leukopenia: 7%
  Lymphocytopenia: 11%
  Neutropenia: 10%
  Peripheral Neuropathy: 0%
  Thrombocytopenia: 6%
[2]; [3]
  Patients with at least 1 TRAE: 28%
  Patients with at least 1 serious TRAE: 7%

## CCCS(=O)(=O)Nc1ccc(F)c(C(=O)c2c[nH]c3ncc(-c4ccc(Cl)cc4)cc23)c1F [vemurafenib]
Metastatic melanoma
  toxicity: low toxicity
